Results published in the supplement of paper PMC10307832.

Experiments:
Assay in all cases: relative viability (nuclei count vs DMSO), 5 days (fraction); higher = more cells survive
[1] = compound: Cn1cc(-c2cnc3ccc4ccc(CS(=O)(=O)NCc5ccccn5)cc4c(=O)c3c2)cn1 [MK-8033] + O=C(CCCCCCC(=O)Nc1ccccc1)NO [Vorinostat] (partner 1 µM)
Procedure, shortened: (§1)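 Relative viability equals treated-well nuclei counts divided by vehicle-well nuclei counts. Counts came from 4× images of lung cancer cell lines grown in 1536-well plates for 5 days after pin-tool dosing on the day after seeding. Dosing used one drug alone or a fixed anchor-drug dose plus five library-drug doses (not always all listed) in √10 steps, and values are medians of duplicate plates.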

[2] = compound: Cn1cc(-c2cnc3ccc4ccc(CS(=O)(=O)NCc5ccccn5)cc4c(=O)c3c2)cn1 [MK-8033] + Nc1ncn([C@H]2C[C@H](O)[C@@H](CO)O2)c(=O)n1 [Decitabine] (partner 2 µM)
Procedure, shortened: as §1

[3] = compound: CCc1c2c(nc3ccc(OC(=O)N4CCC(N5CCCCC5)CC4)cc13)-c1cc3c(c(=O)n1C2)COC(=O)[C@]3(O)CC [Irinotecan] + CC1(C)CCC(c2ccc(Cl)cc2)=C(CN2CCN(c3ccc(C(=O)NS(=O)(=O)c4ccc(N[C@H](CCN5CCOCC5)CSc5ccccc5)c(S(=O)(=O)C(F)(F)F)c4)cc3)CC2)C1 [Navitoclax] (partner 0.5 µM)
Procedure, shortened: as §1

[4] = compound: Cn1cc(-c2cnc3ccc4ccc(CS(=O)(=O)NCc5ccccn5)cc4c(=O)c3c2)cn1 [MK-8033] + NC(=O)Nc1cc(-c2cccc(F)c2)sc1C(=O)N[C@H]1CCCNC1 [AZD7762] (partner 0.2 µM)
Procedure, shortened: as §1

Work on SK-LU-1 yielded a relative viability ([1]; first compound 0.02 µM) of 0.829, a relative viability ([1]; first compound 0.06325 µM) of 0.897 and a relative viability ([1]; first compound 0.2 µM) of 0.704. It also gave a relative viability ([1]; first compound 0.6325 µM) of 0.778, a relative viability ([1]; first compound 2 µM) of 0.685 and a relative viability ([2]; first compound 0.02 µM) of 0.545. The relative viability ([2]; first compound 0.06325 µM) was 0.539, the relative viability ([2]; first compound 0.2 µM) was 0.559 and the relative viability ([2]; first compound 0.6325 µM) was 0.638. For the same cell line, the relative viability ([2]; first compound 2 µM) was 0.657, the relative viability ([3]; first compound 0.6325 µM) was 0.225 and the relative viability ([3]; first compound 2 µM) was 0.334. For the same cell line, the relative viability ([3]; first compound 6.325 µM) was 0.296 and the relative viability ([3]; first compound 20 µM) was 0.263.
With NCI-H1648 the relative viability ([1]; first compound 0.02 µM) was 0.591, the relative viability ([1]; first compound 0.2 µM) was 0.3 and the relative viability ([1]; first compound 0.6325 µM) was 0.718. The relative viability ([1]; first compound 2 µM) was 0.629, the relative viability ([2]; first compound 0.02 µM) was 0.402 and the relative viability ([2]; first compound 0.2 µM) was 0.543. For the same cell line, the relative viability ([2]; first compound 0.6325 µM) was 0.515, the relative viability ([2]; first compound 2 µM) was 0.468 and the relative viability ([4]; first compound 0.02 µM) was 0.6. For the same cell line, the relative viability ([4]; first compound 0.2 µM) was 0.533, the relative viability ([4]; first compound 0.6325 µM) was 0.702 and the relative viability ([4]; first compound 2 µM) was 0.769.
For NCI-H1299, the relative viability ([3]; first compound 0.6325 µM) was 0.886, the relative viability ([3]; first compound 2 µM) was 0.845 and the relative viability ([3]; first compound 6.325 µM) was 0.431. For the same cell line, the relative viability ([3]; first compound 20 µM) was 0.303.
NCI-H1792 showed a relative viability ([2]; first compound 0.02 µM) of 0.527, a relative viability ([2]; first compound 0.06325 µM) of 0.508 and a relative viability ([2]; first compound 0.2 µM) of 0.47. The relative viability ([2]; first compound 0.6325 µM) was 0.522, the relative viability ([2]; first compound 2 µM) was 0.537 and the relative viability ([4]; first compound 0.02 µM) was 0.582. For the same cell line, the relative viability ([4]; first compound 0.06325 µM) was 0.502, the relative viability ([4]; first compound 0.2 µM) was 0.617 and the relative viability ([4]; first compound 0.6325 µM) was 0.7. For the same cell line, the relative viability ([4]; first compound 2 µM) was 0.515, the relative viability ([3]; first compound 0.6325 µM) was 0.598 and the relative viability ([3]; first compound 2 µM) was 0.72. It also gave a relative viability ([3]; first compound 6.325 µM) of 0.162 and a relative viability ([3]; first compound 20 µM) of 0.095.
IA-LM showed a relative viability ([1]; first compound 0.02 µM) of 0.828, a relative viability ([1]; first compound 0.06325 µM) of 0.976 and a relative viability ([1]; first compound 0.2 µM) of 0.938. It also gave a relative viability ([1]; first compound 0.6325 µM) of 1.01, a relative viability ([1]; first compound 2 µM) of 0.965 and a relative viability ([3]; first compound 0.6325 µM) of 0.574. The relative viability ([3]; first compound 2 µM) was 0.246, the relative viability ([3]; first compound 6.325 µM) was 0.15 and the relative viability ([3]; first compound 20 µM) was 0.0454.
Work on ABC-1 yielded a relative viability ([1]; first compound 0.02 µM) of 1.24, a relative viability ([1]; first compound 0.06325 µM) of 0.931 and a relative viability ([1]; first compound 0.2 µM) of 0.928. It also gave a relative viability ([1]; first compound 0.6325 µM) of 1.04, a relative viability ([1]; first compound 2 µM) of 0.975 and a relative viability ([2]; first compound 0.02 µM) of 1.1. It also gave a relative viability ([2]; first compound 0.06325 µM) of 0.976, a relative viability ([2]; first compound 0.2 µM) of 1.07 and a relative viability ([2]; first compound 0.6325 µM) of 1.01. For the same cell line, the relative viability ([2]; first compound 2 µM) was 1.26, the relative viability ([4]; first compound 0.02 µM) was 0.86 and the relative viability ([4]; first compound 0.06325 µM) was 0.709. It also gave a relative viability ([4]; first compound 0.2 µM) of 0.475, a relative viability ([4]; first compound 0.6325 µM) of 0.874 and a relative viability ([4]; first compound 2 µM) of 1.06.
In the case of SW 900, the relative viability ([1]; first compound 0.02 µM) is reported as 0.593, the relative viability ([1]; first compound 0.06325 µM) is reported as 0.394 and the relative viability ([1]; first compound 0.2 µM) is reported as 0.377. For the same cell line, the relative viability ([1]; first compound 0.6325 µM) was 0.541, the relative viability ([1]; first compound 2 µM) was 0.348 and the relative viability ([2]; first compound 0.02 µM) was 0.483. It also gave a relative viability ([2]; first compound 0.06325 µM) of 0.328, a relative viability ([2]; first compound 0.2 µM) of 0.496 and a relative viability ([2]; first compound 0.6325 µM) of 0.549. For the same cell line, the relative viability ([2]; first compound 2 µM) was 0.41, the relative viability ([4]; first compound 0.02 µM) was 0.575 and the relative viability ([4]; first compound 0.06325 µM) was 0.487. The relative viability ([4]; first compound 0.2 µM) was 0.564, the relative viability ([4]; first compound 0.6325 µM) was 0.621 and the relative viability ([4]; first compound 2 µM) was 0.498.
COR-L23 was tested, and the relative viability ([1]; first compound 0.02 µM) was 0.423, the relative viability ([1]; first compound 0.06325 µM) was 0.408 and the relative viability ([1]; first compound 0.2 µM) was 0.385. For the same cell line, the relative viability ([1]; first compound 0.6325 µM) was 0.459, the relative viability ([1]; first compound 2 µM) was 0.491 and the relative viability ([2]; first compound 0.02 µM) was 0.447. It also gave a relative viability ([2]; first compound 0.06325 µM) of 0.361, a relative viability ([2]; first compound 0.2 µM) of 0.465 and a relative viability ([2]; first compound 0.6325 µM) of 0.455. It also gave a relative viability ([2]; first compound 2 µM) of 0.443, a relative viability ([3]; first compound 0.6325 µM) of 0.413 and a relative viability ([3]; first compound 2 µM) of 0.261. For the same cell line, the relative viability ([3]; first compound 6.325 µM) was 0.154 and the relative viability ([3]; first compound 20 µM) was 0.115.
NCI-H2342 gave a relative viability ([1]; first compound 0.02 µM) of 0.859, a relative viability ([1]; first compound 0.06325 µM) of 0.728 and a relative viability ([1]; first compound 0.2 µM) of 0.643. The relative viability ([1]; first compound 0.6325 µM) was 0.79, the relative viability ([1]; first compound 2 µM) was 0.731 and the relative viability ([2]; first compound 0.02 µM) was 0.729. For the same cell line, the relative viability ([2]; first compound 0.06325 µM) was 0.787, the relative viability ([2]; first compound 0.2 µM) was 0.738 and the relative viability ([2]; first compound 0.6325 µM) was 0.705. For the same cell line, the relative viability ([2]; first compound 2 µM) was 0.782, the relative viability ([4]; first compound 0.02 µM) was 0.636 and the relative viability ([4]; first compound 0.06325 µM) was 0.438. The relative viability ([4]; first compound 0.2 µM) was 0.454, the relative viability ([4]; first compound 0.6325 µM) was 0.454 and the relative viability ([4]; first compound 2 µM) was 0.646.
A549 showed a relative viability ([2]; first compound 0.02 µM) of 0.263, a relative viability ([2]; first compound 0.06325 µM) of 0.319 and a relative viability ([2]; first compound 0.2 µM) of 0.474. The relative viability ([2]; first compound 0.6325 µM) was 0.156, the relative viability ([2]; first compound 2 µM) was 0.305 and the relative viability ([3]; first compound 0.6325 µM) was 0.997. For the same cell line, the relative viability ([3]; first compound 2 µM) was 0.639, the relative viability ([3]; first compound 6.325 µM) was 0.118 and the relative viability ([3]; first compound 20 µM) was 0.0499.
With NCI-H661 the relative viability ([1]; first compound 0.02 µM) was 0.785, the relative viability ([1]; first compound 0.06325 µM) was 0.71 and the relative viability ([1]; first compound 0.2 µM) was 0.793. The relative viability ([1]; first compound 0.6325 µM) was 0.761, the relative viability ([1]; first compound 2 µM) was 0.767 and the relative viability ([2]; first compound 0.02 µM) was 0.528. It also gave a relative viability ([2]; first compound 0.06325 µM) of 0.441, a relative viability ([2]; first compound 0.2 µM) of 0.53 and a relative viability ([2]; first compound 0.6325 µM) of 0.531. For the same cell line, the relative viability ([2]; first compound 2 µM) was 0.528.
